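How tested: cells in 96-well plates exposed to compound for 48 hours at five concentrations. TGI is the concentration that stops growth completely.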
Legend:
Test in all cases: NCI tumour cell line growth inhibition, 48 h
NCI-H522 lung = tested on: NCI-H522 lung
TK-10 renal = tested on: TK-10 renal
EKVX NSCLC = tested on: EKVX NSCLC
OVCAR-5 ovarian = tested on: OVCAR-5 ovarian
UO-31 renal = tested on: UO-31 renal
OVCAR-4 ovarian = tested on: OVCAR-4 ovarian
NCI/ADR-RES ovarian = tested on: NCI/ADR-RES ovarian
ACHN renal = tested on: ACHN renal
MDA-MB-435 = tested on: MDA-MB-435
SK-OV-3 ovarian = tested on: SK-OV-3 ovarian

SMILES | TGI (NCI-H522 lung) [µM] | TGI (TK-10 renal) [µM] | TGI (EKVX NSCLC) [µM] | TGI (OVCAR-5 ovarian) [µM] | TGI (UO-31 renal) [µM] | TGI (OVCAR-4 ovarian) [µM] | TGI (NCI/ADR-RES ovarian) [µM] | TGI (ACHN renal) [µM] | TGI (MDA-MB-435) [µM] | TGI (SK-OV-3 ovarian) [µM]
CCn1c2ccccc2c2cc(Nc3cc(C)[nH]c(=O)n3)ccc21 | > 100 | > 100 | > 100 | > 100 | > 100 | > 100 | > 100 | > 100 | > 100 | > 100
C(#Cc1ccccc1)SC1=C(c2ccccc2)S/C(=C(\SC#Cc2ccccc2)c2ccccc2)S1 | > 100 | > 100 | > 100 | > 100 | > 100 | > 100 | > 100 | > 100 | > 100 | > 100
C[C@H](CCC(=O)NCC(=O)O)[C@H]1CC[C@H]2[C@@H]3[C@H](O)C[C@@H]4C[C@H](O)CC[C@]4(C)[C@H]3CC[C@]12C | > 100 | > 100 | > 100 | > 100 | > 100 | > 100 | > 100 | > 100 | > 100 | > 100
Cc1ccc(/C=C2/N=C(N/N=C\c3ccccc3)NC2=O)cc1 | > 100 | > 100 | > 100 | > 100 | 45.6 | 55.1 | > 100 | 38.4 | 69.7 | > 100
CC(=O)NC1C(OCc2ccccc2)OC(CO)C(O)C1OCC(=O)N[C@@H](C)C(=O)N[C@H](CCC(=O)NCCCNc1ccc([N+](=O)[O-])c2[nH]c3ccccc3c(=O)c12)C(N)=O (stereo not given in full) | > 100 | > 100 | > 100 | > 100 | > 100 | 94.8 | > 100 | > 100 | > 100 | > 100
CC/C(=C\c1ccc(OC)cc1)c1ccc(OC)cc1 | > 100 | > 100 | > 100 | > 100 | > 100 | > 100 | > 100 | > 100 | > 100 | > 100
CSCCCNC(=O)[C@H](CSC)NC(=O)c1csc(CCNC(=O)[C@@H](NSc2ccccc2[N+](=O)[O-])C(C)O)n1 (stereo not given in full) | > 100 | > 100 | > 100 | > 100 | > 100 | > 100 | > 100 | > 100 | > 100 | > 100
CC[C@@]1(O)C(=O)OCc2c1cc1n(c2=O)Cc2c-1nc1ccccc1c2/C=N\NC(=O)C(N)Cc1c[nH]c2ccccc12 (stereo not given in full) | 32.3 | > 100 | > 100 | > 87 | 1.48 | > 100 | > 35.6 | 0.446 | > 87.9 | > 84
N#Cc1nc(-c2cccc(-c3nc(C#N)c(N)o3)n2)oc1N | > 100 | > 100 | > 100 | > 100 | > 100 | > 100 | > 100 | > 100 | > 100 | > 100
O=c1[nH]c2ccc([N+](=O)[O-])cc2nc1/C=C(\O)c1ccccc1 | 34.6 | 14.8 | > 100 | > 100 | > 100 | 8.87 | 81.5 | > 100 | > 100 | 33.7
COc1ccccc1NC(=S)N/N=C/c1cccc(C)n1 | > 54.8 | > 100 | > 100 | > 100 | > 39.1 | > 100 | > 31.1 | 25.6 | > 100 | > 44.4
O=c1[nH]nc(-c2ccccc2)n1-n1cnnc1 | > 100 | > 100 | > 100 | > 100 | > 100 | > 100 | > 100 | > 100 | > 100 | > 100
CC/C(N)=N\NC(=O)OC(C)(C)C | > 100 | > 100 | > 100 | > 100 | > 100 | > 100 | > 100 | > 100 | > 100 | > 100
COc1cc(/C=N/NC2=NCCN2)ccc1O | > 100 | > 100 | > 100 | > 100 | > 100 | > 100 | > 100 | > 100 | > 100 | > 100
COc1cc2c3c(cc(Cl)nc3c1OC)C(O)(CC(=O)c1ccccc1)C(=O)N2 (stereo not given) | 8.93 | 32.1 | 10.4 | 35.3 | 26.2 | 5.49 | 63.8 | 28.3 | 3.53 | 32.2
O=C1N(c2ccccc2)C(=S)/C(=C/c2ccc(Cl)cc2)N1c1ccc(Cl)cc1 | 38.4 | 89.8 | > 100 | > 100 | > 100 | > 100 | > 100 | 49.1 | > 100 | 95.7

SMILES | TGI (NCI-H522 lung) [µM] | TGI (TK-10 renal) [µM] | TGI (EKVX NSCLC) [µM] | TGI (OVCAR-5 ovarian) [µM] | TGI (UO-31 renal) [µM] | TGI (OVCAR-4 ovarian) [µM] | TGI (NCI/ADR-RES ovarian) [µM] | TGI (ACHN renal) [µM] | TGI (MDA-MB-435) [µM] | TGI (SK-OV-3 ovarian) [µM]
C=C1C(=O)OC2C3OC(C)(CCC(O)C3COC(C)=O)CC(OC(=O)/C(=C/C)COC(C)=O)C12 (stereo not given) | 0.0749 | 0.562 | 1.61 | 1.12 | 0.807 | 12.3 | 11 | 0.452 | 12.6 | 19.6
Cc1ccc(NC(=O)CC(=O)n2nc(C)c(N=Nc3cccc(C)c3)c2C)cc1 | > 100 | > 100 | > 100 | > 100 | > 100 | > 100 | > 100 | > 100 | > 100 | > 100
c1cc2c(cc1C1=NCCN1)c1cc(C3=NCCN3)ccc1n2CC1CCCCC1 | 21.6 | > 100 | 69.2 | 95.6 | > 100 | > 100 | > 100 | > 100 | 50.3 | 81.8
COC(=O)C(NC(=O)OC(C)(C)C)P(=O)(OC)OC (stereo not given) | > 100 | > 100 | > 100 | > 100 | > 100 | > 100 | > 100 | > 100 | > 100 | > 100
O=P(O)(O)CN1CCNCCN(CP(=O)(O)O)CC1 | > 100 | > 100 | > 100 | > 100 | > 100 | > 100 | > 44.9 | > 100 | > 100 | > 100
COC(=O)c1ccc(NCC2=C(Br)C(=O)C=CC2=O)cc1Cl | 21.2 | 30.9 | 27.9 | 36.7 | 34.7 | 62.3 | 75.4 | 30.7 | 38.1 | > 100
Cc1ccc(S[C@@H](C)[C@@](O)(C(N)=O)c2ccccc2)cc1 | 33 | > 100 | > 100 | > 100 | 30.2 | 46.3 | 49.5 | > 100 | > 100 | > 100
CC(C)=NOC(=O)Nc1cccc2c1OCO2 | > 100 | > 100 | > 100 | > 100 | > 100 | > 100 | > 100 | > 100 | > 100 | > 100
O=C1C(c2c(O)[nH]c3ccc(S(=O)(=O)NCCO)cc23)=Nc2ccccc21 | 4.73 | 42.4 | > 100 | > 100 | > 100 | 14.5 | > 100 | > 100 | > 100 | 20.3
N#Cc1nc(/C=C/c2cccnc2)oc1N | > 100 | > 100 | > 100 | > 100 | > 100 | > 100 | > 100 | > 100 | > 100 | > 100
CCCCCCCCCCCCOP(=O)(O)OP(=O)(O)OCC1OC(n2cc(C)c(=O)[nH]c2=O)CC1O (stereo not given) | > 100 | > 100 | > 100 | > 100 | > 100 | > 100 | > 100 | > 100 | > 100 | > 100
CC(C)(C)[Si](C)(C)OC[C@H](/C=C\CCCC(=O)O)NC1(c2ccccc2)c2ccccc2-c2ccccc21 | > 100 | > 100 | 40.9 | 76.6 | 34.4 | > 100 | 61 | 49.5 | 39.3 | 72.8
COC(=O)c1cc(/C=C\c2cc(OC)ccc2OC)ccc1OC | 45.6 | > 100 | 88.9 | > 100 | 75.3 | > 100 | > 100 | > 100 | 61.4 | 83.6
CN(C)/C=C/C=C(/C=N/S(=O)(=O)C(F)(F)F)C1C=CN(S(=O)(=O)C(F)(F)F)C=C1 | 52.4 | > 100 | 87.2 | 91.7 | 89.4 | 42.9 | 96.1 | 84.7 | 73.5 | 94
CN1CCN([C@H]2C[C@H]3[C@@H]4CC=C5C[C@@H](O)CC[C@]5(C)[C@H]4CC[C@]3(C)[C@H]2O)CC1 | > 100 | > 100 | > 100 | > 82.8 | > 100 | > 56.6 | > 100 | > 100 | 31 | > 100

— PubChem BioAssay (NCI)
